In US20070128217A1 (priority 2003, published 2007):

How the values were obtained:
[1] = test system: control sera (pooled serum of ten healthy LUMC hospital workers; commercial negative donor pooled serum from the Dutch bloodbank); type: binding, human; design: Binding of Control serum LUMC to linear peptides / Binding of Control serum Blood-bank to linear peptides / Binding of Control serum LUMC to looped peptides / Binding of Control Serum Blood-Bank to Looped peptides / Binding of Control serum LUMC to linear peptides of the protein M of SARS-CoV Urbani / Binding of Control serum Blood-bank to linear peptides of the protein M of SARS-CoV Urbani / Binding of Control serum LUMC to looped peptides of the protein M of SARS-CoV Urbani / Binding of Control Serum Blood-Bank to Looped peptides of the protein M of SARS-CoV Urbani: unit not given here
[2] = test system: rabbit serum obtained by immunizing a rabbit with the SARS-CoV strain Frankfurt 1; type: binding; design: Binding of a rabbit serum to linear peptides / Binding of a rabbit serum to looped peptides / Rabbit serum linear peptides / Rabbit serum looped peptides / Binding of a rabbit serum to linear peptides of protein N of SARS-CoV Urbani (Rabbit serum linear peptides) / Binding of a rabbit serum to looped/cyclic peptides of protein N of SARS-CoV Urbani (Rabbit serum looped peptides): unit not given here
[3] = test system: antibodies in sera from SARS patients (sera 1a, 1b, 2, 6, 37, 62, London, SARS-yellow, SARS-green); type: binding, human; design: Binding of serum 6 to linear peptides of protein X1 of SARS-CoV Urbani / Binding of serum 37 to linear peptides of protein X1 of SARS-CoV Urbani / Binding of serum 6 to looped/cyclic peptide (PEPSCAN-ELISA) / Binding of serum 37 to looped/cyclic peptide (PEPSCAN-ELISA) / Binding of serum 37 to looped/cyclic peptides of protein X1 of SARS-CoV Urbani / Binding of serum 6 to linear peptides of protein X2 / Binding of serum 37 to linear peptides of protein X2 / Binding of serum 37 to looped/cyclic peptides of protein X2 of SARS-CoV Urbani / Binding of serum 6 to linear peptides of protein M of SARS-CoV Urbani / Binding of serum 37 to linear peptides of protein M of SARS-CoV Urbani / Binding of serum 6 to looped/cyclic peptides of protein M of SARS-CoV Urbani / Binding of serum 37 to looped/cyclic peptides of protein M of SARS-CoV Urbani / Binding of serum 6 to linear peptides of protein X3 of SARS-CoV Urbani / Binding of serum 37 to linear peptides of protein X3 of SARS-CoV Urbani / Binding of serum 37 to looped/cyclic peptides of protein X3 of SARS-CoV Urbani / Binding of serum 6 to linear peptides of protein X4 of SARS-CoV Urbani / Binding of serum 37 to linear peptides of protein X4 of SARS-CoV Urbani / Binding of serum 37 to looped/cyclic peptides of protein X4 of SARS-CoV Urbani / Binding of serum 6 to linear peptides of protein X5 of SARS-CoV Urbani / Binding of serum 37 to linear peptides of protein X5 of SARS-CoV Urbani / Binding of serum 37 to looped/cyclic peptides of protein X5 of SARS-CoV Urbani / Binding of serum 6 to linear peptides of protein N of SARS-CoV Urbani / Binding of serum 37 to linear peptides of protein N of SARS-CoV Urbani / Binding of serum 6 to linear peptide (PEPSCAN-ELISA) / Binding of serum 1a to looped/cyclic peptides of protein N of SARS-CoV Urbani / Binding of serum 1b to looped/cyclic peptides of protein N of SARS-CoV Urbani / Binding of serum 2 to looped/cyclic peptides of protein N of SARS-CoV Urbani / Binding of serum 6 to looped/cyclic peptides of protein N of SARS-CoV Urbani / Binding of serum 37 to looped/cyclic peptides of protein N of SARS-CoV Urbani / Binding of serum 62 to looped/cyclic peptides of protein N of SARS-CoV Urbani / Binding of serum London to looped/cyclic peptides of protein N of SARS-CoV Urbani / Binding of serum SARS-green to looped/cyclic peptides of protein N of SARS-CoV Urbani: unit not given here

| Sequence | Binding of Control Serum Blood-Bank to Looped peptides [1] | Binding of Control serum Blood-bank to linear peptides [1] | Binding of Control serum LUMC to linear peptides [1] | Binding of Control serum LUMC to looped peptides [1] | Binding of a rabbit serum to linear peptides [2] | Binding of a rabbit serum to looped peptides [2] | further results |
| --- | --- | --- | --- | --- | --- | --- | --- |
| SGTYEGNSPFHPLAD | 0.8 | 0.8 | 0.8 | 0.8 | – | – | Rabbit serum linear peptides [2]: 0.6; Rabbit serum looped peptides [2]: 0.6 |
| NYDYCIPYNSVTDTI | 0.6 | 0.6 | 0.6 | 0.7 | 0.1 | 0.5 | – |
| SGVKDYVVVHGYFTE | 0.2 | 0.5 | 0.6 | 0.5 | 0.1 | 0.7 | – |
| NCQDPAGGALIARCW | 0.8 | 0.6 | 0.3 | 0.6 | – | – | Rabbit serum linear peptides [2]: 0.5; Rabbit serum looped peptides [2]: 0.5 |
| GVKDYVVVHGYFTEV | 1.1 | 0.5 | 0.7 | 1.3 | 0.1 | 0.7 | – |
| DRHSGVKDYVVVHGY | 0.6 | 0.7 | 0.7 | 0.4 | 0.1 | 0.5 | – |
| VTGGIAIAMACIVGL | – | – | – | – | – | – | Binding of Control Serum Blood-Bank to Looped peptides of the protein M of SARS-CoV Urbani [1]: 0.7; Binding of Control serum Blood-bank to linear peptides of the protein M of SARS-CoV Urbani [1]: 1.1; Binding of Control serum LUMC to linear peptides of the protein M of SARS-CoV Urbani [1]: 1.3; Binding of Control serum LUMC to looped peptides of the protein M of SARS-CoV Urbani [1]: 0.8; Rabbit serum linear peptides [2]: 0.3; Rabbit serum looped peptides [2]: 0.4 |
| FVCWHTHNYDYCIPY | 0.5 | 0.6 | 0.7 | 0.6 | 0.1 | 0.7 | – |
| NIVNVSLVKPTVYVY | 0.6 | 0.6 | 0.4 | 0.8 | 0.5 | 0.6 | – |
| HSGVKDYVVVHGYFT | 2.2 | 0.7 | 0.8 | 2.3 | 0.1 | 0.6 | – |
| LFKPLTKKNYSELDD | – | – | – | – | – | – | Binding of Control Serum Blood-Bank to Looped peptides of the protein X3 of SARS-CoV Urbani [1]: 0.8; Binding of Control serum Blood-bank to linear peptides of the protein X3 of SARS-CoV Urbani [1]: 0.7; Binding of Control serum LUMC to linear peptides of the protein X3 of SARS-CoV Urbani [1]: 0.6; Binding of Control serum LUMC to looped peptides of the protein X3 of SARS-CoV Urbani [1]: 0.9; Rabbit serum linear peptides [2]: 0.3; Rabbit serum looped peptides [2]: 0.4 |
| NVTINCQDPAGGALI | 0.7 | 0.8 | 0.6 | 0.7 | – | – | Rabbit serum linear peptides [2]: 0.6; Rabbit serum looped peptides [2]: 0.5 |
| AMDPIYDEPTTTTSV | 0.7 | 0.8 | 0.6 | 0.7 | 0.1 | 0.4 | – |
| YQIGGYSEDRHSGVK | 0.3 | 0.3 | 0.4 | 0.3 | 0.1 | 0.5 | – |
| KLVVILRIGTQVLKT | 0.7 | 0.8 | 0.4 | 0.6 | 0.5 | 0.5 | – |
| LKEDYQIGGYSEDRH | 0.4 | 0.5 | 0.5 | 0.5 | 0.1 | 0.7 | – |
| ITAQPVKIDNASPAS | 0.5 | 0.7 | 0.7 | 0.5 | 0.1 | 0.3 | – |
| LGSITAQPVKIDNAS | 0.4 | 0.4 | 0.5 | 0.4 | 0.3 | 0.4 | – |
| ILIIIMRTFRIAIWN | – | – | – | – | – | – | Binding of Control Serum Blood-Bank to Looped peptides of the protein X3 of SARS-CoV Urbani [1]: 0.7; Binding of Control serum Blood-bank to linear peptides of the protein X3 of SARS-CoV Urbani [1]: 0.8; Binding of Control serum LUMC to linear peptides of the protein X3 of SARS-CoV Urbani [1]: 0.5; Binding of Control serum LUMC to looped peptides of the protein X3 of SARS-CoV Urbani [1]: 0.3; Rabbit serum linear peptides [2]: 0.5; Rabbit serum looped peptides [2]: 0.6 |
| SRVKNLNSSEGVPDL | 0.5 | 0.9 | 0.7 | 0.7 | 0.7 | 0.0 | – |
| GTQVLKTMSLYMAIS | 0.7 | 0.6 | 0.6 | 0.6 | 0.2 | 0.4 | – |
| TTVYHITVSQIQLSL | – | – | – | – | 0.7 | 0.4 | Binding of serum 1a to linear peptides of protein X2 [3]: 0.7; Binding of serum 1a to looped/cyclic peptides of protein X2 of SARS-CoV Urbani [3]: 0.5; Binding of serum 1b to linear peptides of protein X2 [3]: 0.5; Binding of serum 1b to looped/cyclic peptides of protein X2 of SARS-CoV Urbani [3]: 0.5; Binding of serum 2 to linear peptides of protein X2 [3]: 0.5; Binding of serum 2 to looped/cyclic peptides of protein X2 of SARS-CoV Urbani [3]: 0.3; Binding of serum 6 to linear peptides of protein X2 [3]: 0.5; Binding of serum 6 to looped/cyclic peptides of protein X2 of SARS-CoV Urbani [3]: 0.3; Binding of serum 37 to linear peptides of protein X2 [3]: 0.7; Binding of serum 37 to looped/cyclic peptides of protein X2 of SARS-CoV Urbani [3]: 0.4; Binding of serum 62 to linear peptides of protein X2 [3]: 0.6; Binding of serum 62 to looped/cyclic peptides of protein X2 of SARS-CoV Urbani [3]: 0.5; Binding of serum London to linear peptides of protein X2 [3]: 0.4; Binding of serum London to looped/cyclic peptides of protein X2 of SARS-CoV Urbani [3]: 0.2; Binding of serum SARS-green to linear peptides of protein X2 [3]: 0.1; Binding of serum SARS-green to looped/cyclic peptides of protein X2 of SARS-CoV Urbani [3]: 0.2; Binding of serum SARS-yellow to linear peptides of protein X2 [3]: 0.8; Binding of serum SARS-yellow to looped/cyclic peptides of protein X2 of SARS-CoV Urbani [3]: 0.4 |
